{"source": "patent US20250360091A1", "about": "“COMBINATION OF SGLT2 INHIBITOR AND MENTHOL AND USE THEREOF IN TREATMENT OF HEART DISEASE” (EAST CHINA UNIVERSITY OF SCIENCE AND TECHNOLOGY, priority 2023, published 2025)", "key": {"[1]": {"test_system": "Rat myocardial cells (H9c2)", "test": "Glucose deprivation (GD)-induced myocardial cell injury model, cck8 cell survival, checkerboard (Example 1)", "format": "cell-based", "settings": "empagliflozin used alone; GD 36-48 h", "procedure": "In this example, a glucose deprivation (GD)-induced myocardial cell injury model was used to evaluate the protective effect of the drug composition on myocardial cells. Rat myocardial cells (H9c2) were purchased from the stem cell bank of the Chinese Academy of Sciences. Myocardial cells were cultured in high-glucose DMEM (containing 10% fetal bovine serum, 1% penicillin/streptomycin) culture medium and placed in an incubator at 37° C. and 5% CO2. After the myocardial cells basically covered the cell culture dish (10 cm), the cells were digested with trypsin and planted in a 96-well plate at a cell density of 8000 cells/well, 100 μL per well. When the cells covered the bottom of the dish, the DMEM culture medium was removed and the plate was washed once with PBS. The compound was diluted to the target concentration with sugar-free and serum-free DMEM, added to the plate, and treated with GD. […] The cell survival rates of empagliflozin (EMPA) 0-100 μM, L-menthol (MEN) 0-200 μM and combined concentrations were tested, and the cell survival rates of single drugs and combined drugs were input into CompuSyn (http://www.combosyn.com) to calculate the synergistic coefficient."}, "[2]": {"test_system": "TAC-induced heart failure model", "test": "Transverse aortic constriction (TAC)-induced heart failure model (Example 4)", "format": "in vivo, C57/6J male mice", "experimental": "The transverse aortic constriction (TAC) model is the most commonly used disease model of chronic ventricular hypertrophy, which is used to simulate hypertrophic cardiomyopathy, heart failure, and hypertensive heart disease caused by hypertension or increased intraventricular pressure.\nNine-week-old C57/6J male mice were divided into five groups (sham group, TAC group, 30 mg/kg cmpagliflozin group (E30), 10 mg/kg empagliflozin+15 mg/kg menthol group (E10+M15), and 30 mg/kg empagliflozin+45 mg/kg menthol group (E30+M45)).\nExperimental process of aortic arch constriction surgery: hair was removed from the surgical area from the neck to the anterior chest of the experimental mouse, and the surgical area was disinfected with iodine. The neck and chest were opened in the midline, the muscles were bluntly separated, the incision was retracted with retractors, the thymus was dissected, and the aortic arch was exposed. The innominate artery, left common carotid artery, and left subclavian artery were found along the aortic arch. The thread was passed between the right innominate artery and the left common carotid artery, and the constriction needle was paced parallel to the aortic arch and then the thread was tied a knot. After tightening the thread, the constriction needle was slowly withdrawn, that is, quantitative constriction was formed in the aortic arch. The chest cavity was closed, the skin on the neck and chest was sutured and disinfected with iodine. Two weeks after the operation, after confirming the hypertrophy of the heart through cardiac function test, drug administration started, and continued for 4 weeks. The drug administration group was gavaged once a day in the morning, and the sham group and TAC group were gavaged with the same amount of drinking water every morning.\nThe survival of mice was recorded during the experiment. After 4 weeks of continuous administration, the exercise tolerance of experimental mice was evaluated by rotarod test, suspension test and grip strength test. The rotarod test evaluated the maximum tolerance time of mice at a speed of 35 rpm, the suspension test evaluated the maximum tolerance time of mice forearm suspension, and the grip strength test evaluated the maximum grip strength of mice forepaws. […] After the experiment, the mice were euthanized, the hearts were weighed, the heart-body weight ratio was calculated, and then the hearts were fixed, paraffin-embedded, sliced, and Masson-stained. ImageJ was used to quantify the fibrosis area and calculate the degree of cardiac fibrosis. Graph Pad software was used for data processing and significant differences were calculated (OneWayANOVA was used between multiple groups, and Student's t test was used between two groups)."}, "H9c2 cells": {"test_system": "H9c2 cells", "test": "Oil Red O staining of palmitic acid-induced lipid accumulation (Example 6)", "format": "cell-based, Rat", "settings": "used alone: EMPA 50 or 100 μM, MEN 200 μM; 24 h after 200 μM palmitic acid 48 h", "experimental": "1. Oil Red O staining. H9c2 cells were seeded in 12-well plates (1×10^5 cells per well) and cultured to 80-90% confluence. The cells were incubated with lipid medium containing 200 μM palmitic acid (Sigma-Aldrich, P0500) for 48 h to induce lipid droplet accumulation. The lipid medium was removed, and the cells were cultured for 24 h with medium containing 50 μM EMPA (E50, EMPA-50), 100 μM EMPA (E100), 200 μM MEN (M200), and 50 μM EMPA+200 μM MEN (E50+M200) but without palmitic acid. After the incubation, the cells were stained with Oil Red. The cells were washed 3 times with PBS and fixed with 4% paraformaldehyde at room temperature for 30 min. They were washed again with PBS 3 times and incubated with Oil Red O working solution at room temperature for 30 min. After rinsing with PBS 3 times, the cells were imaged under a microscope. The red area (positive area of lipid accumulation) was measured using Image J software package. The experiment was divided into 6 groups, black group (blank group, not treated with lipid medium and drugs), control group (control group, treated with lipid medium but not treated with drugs), E50 group (treated with lipid medium and then 50 μM EMPA), E100 (treated with lipid medium and then 100 μM EMPA), M200 (treated with lipid medium and then 200 μM menthol), E50+M200 (treated with lipid medium and then 50 μM empagliflozin+200 μM menthol)."}, "PGC-1α, PPARα, CPT1b": {"test_system": "PGC-1α, PPARα, CPT1b", "test": "Western blotting of fatty acid metabolism proteins (Example 6)", "format": "cell-based, Rat", "settings": "48 h; menthol 200 μM alone or 50 μM empagliflozin + 200 μM menthol", "experimental": "2. Western blotting. H9c2 cells were seeded in a 12-well plate. After 48 hours of drug treatment, the cells were harvested and the total protein in the cells was extracted with RIPA lysis buffer. After BCA quantification, 4× loading buffer was added and boiled in a 95° C. metal bath for 10 minutes to denature the protein. 5-10 μg of the denatured protein sample was added to SDS-PAGE. After electrophoresis, separation, transfer, and blocking, PGC-1α, PPARα, CPT1b, and GAPDH primary antibody were added and incubated overnight at 4° C. The next day, the primary antibody was recovered, and the corresponding secondary antibody was added and incubated at room temperature for 1 hour. After washing three times, ECL chemiluminescent solution was added to the strips, and immunoblotting analysis was performed using a Tanon gel imager. ImageJ software was used to perform grayscale analysis of the immunoblot bands, GAPDH was used as an internal reference for correction, and the relative expression content of the protein was calculated. The experiment was divided into DMSO group (DMSO treatment group with content not exceeding 0.5%), E50 (50 μM EMPA treatment group), M200 (200 μM menthol treatment group), and E50+M200 (50 μM empagliflozin+200 μM menthol treatment group)."}}}
{"compound": "OC[C@H]1O[C@@H](c2ccc(Cl)c(Cc3ccc(O[C@H]4CCOC4)cc3)c2)[C@H](O)[C@@H](O)[C@@H]1O", "note": "[empagliflozin]", "values": [{"measurement": "effective concentration of empagliflozin (cell survival)", "setting": "[1]", "value": 50, "unit": "µM"}, {"measurement": "myocardial hypertrophy (heart weight to body weight ratio)", "setting": "[2]; EMPA 30 mg/kg, 4 weeks", "value": "significantly improves myocardial hypertrophy"}, {"measurement": "mouse deaths during the experiment (survival)", "setting": "[2]; EMPA 30 mg/kg, gavage once daily for 4 weeks", "value": "one mouse died"}, {"measurement": "cardiac function (ejection fraction, fractional shortening, LV diameters)", "setting": "[2]; empagliflozin 30 mg/kg, 4 weeks", "value": "significantly improves TAC-induced cardiac dysfunction"}, {"measurement": "exercise tolerance (grip strength, rotarod, forearm suspension)", "setting": "[2]; empagliflozin alone 30 mg/kg, 4 weeks", "value": "cannot improve the exercise tolerance"}, {"measurement": "lipid accumulation in cardiomyocytes (Oil Red O staining area)", "setting": "H9c2 cells", "value": "significantly reduce lipid accumulation"}]}
{"compound": "CC(C)[C@@H]1CC[C@@H](C)C[C@H]1O", "note": "[menthol, L-menthol]", "values": [{"measurement": "lipid accumulation in cardiomyocytes (Oil Red O staining area)", "setting": "H9c2 cells", "value": "significantly reduce lipid accumulation"}, {"measurement": "expression of PCG-1α/PPARα", "setting": "PGC-1α, PPARα, CPT1b", "value": "significantly increase the expression"}, {"measurement": "expression of fatty acid transporter CPT1b", "setting": "PGC-1α, PPARα, CPT1b", "value": "upregulate the expression"}]}
